Measurements as given in US6498179B1, “Oxazole derivatives, their production and use” (Takeda Chemical Industries, Ltd., priority 1996, dated 2002).

melting point [°C]	Compound
155 to 156	Cc1nccn1-c1nc(-c2ccc(Cl)cc2)c(CCC(=O)NCCCl)o1
131 to 132	Cc1nccn1-c1nc(-c2ccc(Cl)cc2)c(CCCC(=O)NCCCl)o1
197 to 199	Cc1nccn1-c1nc(-c2ccc(Cl)cc2)c(CCCCCn2ccnc2)o1.Cl.Cl.O (hydrate or solvate)
71 to 72	COC(=O)CCc1oc(Cl)nc1-c1ccc(Cl)cc1 [Example 1, methyl 2-chloro-4-(4-chlorophenyl)-5-oxazolepropionate]
125 to 126	O=C(O)CCc1oc(SCc2ccccn2)nc1-c1ccc(Cl)cc1 [Example 8, 4-(4-chlorophenyl)-2-(2-pyridylmethylthio)-5-oxazolepropionic acid]
129 to 130	O=C(O)CCc1oc(SCc2cccnc2)nc1-c1ccc(Cl)cc1 [Example 9, 4-(4-chlorophenyl)-2-(3-pyridylmethylthio)-5-oxazolepropionic acid]
180 to 181	O=C(O)CCc1oc(N2CCOCC2)nc1-c1ccc(Cl)cc1 [Example 18, 4-(4-chlorophenyl)-2-morpholino-5-oxazolepropionic acid]
53 to 54	CCc1nccn1-c1nc(-c2ccc(Cl)cc2)c(CCC2=NCCO2)o1 [Example 50, 4-(4-chlorophenyl)-2-(2-ethyl-1-imidazolyl)-5-[2-(2-oxazolin-2-yl)ethyl]oxazole]
70 to 71	CCOC(=O)CCc1oc(-n2ccnc2C)nc1-c1ccc(Cl)cc1 [Example 52, ethyl 4-(4-chlorophenyl)-2-(2-methyl-1-imidazolyl)-5-oxazolepropionate]
211 to 212	O=C(O)CCCc1oc(Cl)nc1-c1ccc(Cl)cc1 [Example 62, 2-chloro-4-(4-chlorophenyl)-5-oxazolebutyric acid]
109 to 110	Cc1nccn1-c1nc(-c2ccc(Cl)cc2)c(CCC=O)o1 [Example 69, 4-(4-chlorophenyl)-2-(2-methyl-1-imidazolyl)-5-oxazolepropionaldehyde]
110 to 111	Cc1nccn1-c1nc(-c2ccc(Cl)cc2)c(CCC2NCCS2)o1 (centres unmarked) [Example 70, 2-[2-[4-(4-chlorophenyl)-2-(2-methyl-1-imidazolyl)-5-oxazolyl]ethyl]thiazolidine]
74 to 75	Cc1nccn1-c1nc(-c2ccc(Cl)cc2)c(CCCCn2cncn2)o1 [Example 88, 1-[4-[4-(4-chlorophenyl)-2-(2-methyl-1-imidazolyl)-5-oxazolyl]butyl]1,2,4-triazole]

More lines, now with the values behind:

Compound	melting point [°C]
O=C(O)CCc1oc(Cl)nc1-c1ccc(Cl)cc1 [Example 2, 2-chloro-4-(4-chlorophenyl)-5-oxazolepropionic acid]	169 to 170
CCOc1nc(-c2ccc(Cl)cc2)c(CCC(=O)O)o1 [Example 3, 4-(4-chlorophenyl)-2-ethoxy-5-oxazolepropionic acid]	148 to 149
CC(C)Oc1nc(-c2ccc(Cl)cc2)c(CCC(=O)O)o1 [Example 4, 4-(4-chlorophenyl)-2-isopropoxy-5-oxazolepropionic acid]	116 to 117
O=C(O)CCc1oc(Oc2ccccc2)nc1-c1ccc(Cl)cc1 [Example 5, 4-(4-chlorophenyl)-2-phenoxy-5-oxazolepropionic acid]	136 to 137
CSc1nc(-c2ccc(Cl)cc2)c(CCC(=O)O)o1 [Example 6, 4-(4-chlorophenyl)-2-methylthio-5-oxazolepropionic acid]	183 to 184
CC(C)Sc1nc(-c2ccc(Cl)cc2)c(CCC(=O)O)o1 [Example 7, 4-(4-chlorophenyl)-2-isopropylthio-5-oxazolepropionic acid]	132 to 133
O=C(O)CCc1oc(Sc2ccccc2)nc1-c1ccc(Cl)cc1 [Example 10, 4-(4-chlorophenyl)-2-phenylthio-5-oxazolepropionic acid]	156 to 157
Cc1ccc(Sc2nc(-c3ccc(Cl)cc3)c(CCC(=O)O)o2)cc1 [Example 11, 4-(4-chlorophenyl)-2-(4-methylphenylthio)-5-oxazolepropionic acid]	160 to 161
CNc1nc(-c2ccc(Cl)cc2)c(CCC(=O)O)o1 [Example 16, 4-(4-chlorophenyl)-2-methylamino-5-oxazolepropionic acid]	217 to 218
O=C(O)CCc1oc(-n2ccnc2)nc1-c1ccc(Cl)cc1 [Example 24, 4-(4-chlorophenyl)-2-(1-imidazolyl)-5-oxazolepropionic acid]	194 to 195
CCCc1nccn1-c1nc(-c2ccc(Cl)cc2)c(CCC(=O)O)o1 [Example 30, 4-(4-chlorophenyl)-2-(2-propyl-1-imidazolyl)-5-oxazolepropionic acid]	174 to 175
Cc1nccn1-c1nc(-c2ccc(Cl)cc2)c(CCC(N)=O)o1 [Example 41, 4-(4-chlorophenyl)-2-(2-methyl-1-imidazolyl)-5-oxazolepropionamide]	215 to 216
Cc1nccn1-c1nc(-c2ccc(Cl)cc2)c(CCC2=NCCO2)o1 [Example 46, 4-(4-chlorophenyl)-2-(2-methyl-1-imidazolyl)-5-[2-(2-oxazolin-2-yl)ethyl]oxazole]	119 to 120
OCCCc1oc(-n2ccnc2)nc1-c1ccc(Cl)cc1 [Example 57, 4-(4-chlorophenyl)-2-(1-imidazolyl)-5-oxazolepropanol]	114 to 115
Cc1nccn1-c1nc(-c2ccc(Cl)cc2)c(CCC2=NCCS2)o1 [Example 60, 4-(4-chlorophenyl)-2-(2-methyl-1-imidazolyl)-5-[2-(2-thiazolin-2-yl)ethyl]oxazole]	73 to 74
CCOC(=O)CCCc1oc(-n2ccnc2C)nc1-c1ccc(Cl)cc1 [Example 64, ethyl 4-(4-chlorophenyl)-2-(2-methyl-1-imidazolyl)-5-oxazolebutyrate]	72 to 73
Cc1nccn1-c1nc(-c2ccc(Cl)cc2)c(CCCC2=NCCO2)o1 [Example 67, 4-(4-chlorophenyl)-2-(2-methyl-1-imidazolyl)-5-[3-(2-oxazolin-2-yl)propyl]oxazole]	88 to 89
CON(C)C(=O)CCc1oc(-n2ccnc2C)nc1-c1ccc(Cl)cc1 [Example 68, N-methoxy-N-methyl-4-(4-chlorophenyl)-2-(2-methyl-1-imidazolyl)-5-oxazolepropionamide]	116 to 117
Cc1nccn1-c1nc(-c2ccc(Cl)cc2)c(CCCOS(C)(=O)=O)o1 [Example 71, 3-[4-(4-chlorophenyl)-2-(2-methyl-1-imidazolyl)-5-oxazolyl]propyl methanesulfonate]	97 to 98
Cc1nccn1-c1nc(-c2ccc(Cl)cc2)c(CCO)o1 [Example 78, 4-(4-chlorophenyl)-2-(2-methyl-1-imidazolyl)-5-oxazolethanol]	159 to 160
CCOC(=O)CCCCc1oc(-n2ccnc2C)nc1-c1ccc(Cl)cc1 [Example 81, ethyl 4-(4-chlorophenyl)-2-(2-methyl-1-imidazolyl)-5-oxazolepentanoate]	93 to 94
Cc1nccn1-c1nc(-c2ccc(Cl)cc2)c(CCCCCCO)o1 [Example 84, 4-(4-chlorophenyl)-2-(2-methyl-1-imidazolyl)-5-oxazolehexanol]	70 to 71
